System: uterine gene expression
Assay: Gene expression profiling (HGU133A) in the uterus of ovariectomized monkeys treated with estradiol, tamoxifen or raloxifene
Type: in vivo, cynomolgus monkeys (Macaca fascicularis)

Compound: CC/C(=C(\c1ccccc1)c1ccc(OCCN(C)C)cc1)c1ccccc1 [tamoxifen]
- Uterine expression increase: Collagen type 1 alpha 2 (compared with OVX controls): 6.1 fold
- Uterine expression increase: collagen type 1 alpha1 (compared with OVX controls): 3.5 fold
- Uterine expression increase: collagen type III alpha 1 (compared with OVX controls): 3.4 fold
- Uterine expression increase: collagen type IV alpha 1 (compared with OVX controls): 3.2 fold
- Uterine expression increase: insulin-like GF binding protein 2 (36 kDa) (compared with OVX controls): 2.7 fold
- Uterine expression changes: IGFBP 5, latent TGF beta binding protein 1, cysteine-rich angiogenic inducer 61 (cynomolgus monkey, in vivo): only modest changes
- Uterine expression of the remaining signal transduction genes examined (tamoxifen: except for LDL receptor adaptor protein): downregulated
- Fold change relative to OVX: ATPase, H+ transporting, lysosomal 38 kda, V0 subunit d isoform 1 (uterus, OVX monkeys): 1.2 fold
- Fold change relative to OVX: ATPase, Na+/K+ transporting, beta 3 polypeptide (uterus, OVX monkeys): 2.1 fold
- Fold change relative to OVX: Biglycan (uterus, OVX monkeys): 2.0 fold
- Fold change relative to OVX: CDC28 protein kinase regulatory subunit 2 (uterus, OVX monkeys): 3.1 fold
- Fold change relative to OVX: Cadherin 11, type 2, OB-cadherin (osteoblast) (uterus, OVX monkeys): 3.2 fold
- Fold change relative to OVX: Calcium channel, voltage-dependent, beta 2 subunit (uterus, OVX monkeys): 0.5 fold
- Fold change relative to OVX: Catenin (cadherin-associated protein), alpha-like 1 (uterus, OVX monkeys): 0.7 fold
- Fold change relative to OVX: Chitinase 3-like 1 (cartilage glycoprotein-39) (uterus, OVX monkeys): 1.7 fold
- Fold change relative to OVX: Chloride intracellular channel 4 (uterus, OVX monkeys): 1.9 fold
- Fold change relative to OVX: Chondroitin sulfate proteoglycan 2 (versican) (uterus, OVX monkeys): 2.9 fold
- Fold change relative to OVX: Collagen, type I, alpha 1 (uterus, OVX monkeys): 3.5 fold
- Fold change relative to OVX: Collagen, type IV, alpha 2 (uterus, OVX monkeys): 2.2 fold
- Fold change relative to OVX: Collagen, type V, alpha 1 (uterus, OVX monkeys): 1.3 fold
- Fold change relative to OVX: Collagen, type VI, alpha 3 (uterus, OVX monkeys): 2.0 fold
- Fold change relative to OVX: Collagen, type VIII, alpha 2 (uterus, OVX monkeys): 1.8 fold
- Fold change relative to OVX: Cyclin D1 (PRAD1: parathyroid adenomatosis 1) (uterus, OVX monkeys): 1.8 fold
- Fold change relative to OVX: Cysteine-rich, angiogenic inducer, 61 (uterus, OVX monkeys): 1.6 fold
- Fold change relative to OVX: Cytochrome c oxidase subunit via polypeptide 1 (uterus, OVX monkeys): 1.3 fold
- Fold change relative to OVX: Cytochrome c oxidase subunit viia polypeptide 2 (liver) (uterus, OVX monkeys): 1.6 fold
- Fold change relative to OVX: Dermatopontin (uterus, OVX monkeys): 1.8 fold
- Fold change relative to OVX: Dishevelled associated activator of morphogenesis 1 (uterus, OVX monkeys): 1.2 fold
- Fold change relative to OVX: Fibroblast growth factor 2 (basic) (uterus, OVX monkeys): 2.0 fold
- Fold change relative to OVX: Fibulin 1 (uterus, OVX monkeys): 1.9 fold
- Fold change relative to OVX: Four and a half LIM domains 2 (uterus, OVX monkeys): 1.7 fold
- Fold change relative to OVX: G1 to S phase transition 1 (uterus, OVX monkeys): 1.6 fold
- Fold change relative to OVX: Growth associated protein 43 (uterus, OVX monkeys): 1.9 fold
- Fold change relative to OVX: H2A histone family, member Y (uterus, OVX monkeys): 1.7 fold
- Fold change relative to OVX: Heparan sulfate proteoglycan 2 (perlecan) (uterus, OVX monkeys): 2.2 fold
- Fold change relative to OVX: Histone H2A.F/Z variant (uterus, OVX monkeys): 1.5 fold
- Fold change relative to OVX: Insulin-like growth factor binding protein 2, 36 kda (uterus, OVX monkeys): 2.7 fold
- Fold change relative to OVX: Insulin-like growth factor binding protein 5 (uterus, OVX monkeys): 2.0 fold
- Fold change relative to OVX: Integrin, beta 5 (uterus, OVX monkeys): 1.5 fold
- Fold change relative to OVX: Intercrine-alpha, mrna sequence (uterus, OVX monkeys): 1.5 fold
- Fold change relative to OVX: LDL receptor adaptor protein (uterus, OVX monkeys): 1.2 fold
- Fold change relative to OVX: LIM and senescent cell antigen-like domains 1 (uterus, OVX monkeys): 2.9 fold
- Fold change relative to OVX: Laminin, beta 1 (uterus, OVX monkeys): 1.4 fold
- Fold change relative to OVX: Latent transforming growth factor beta binding protein 1 (uterus, OVX monkeys): 2.6 fold
- Fold change relative to OVX: Matrix metalloproteinase 19 (uterus, OVX monkeys): 1.6 fold
- Fold change relative to OVX: Mitogen-activated protein kinase kinase kinase kinase 4 (uterus, OVX monkeys): 0.6 fold
- Fold change relative to OVX: Nidogen (enactin) (uterus, OVX monkeys): 1.9 fold
- Fold change relative to OVX: Osteoglycin (osteoinductive factor, mimecan) (uterus, OVX monkeys): 1.7 fold
- Fold change relative to OVX: Peroxiredoxin 1 (uterus, OVX monkeys): 1.7 fold
- Fold change relative to OVX: Phosphatase and tensin homolog (mutated in multiple advanced cancers 1) (uterus, OVX monkeys): 1.6 fold
- Fold change relative to OVX: Phospholipid transfer protein (uterus, OVX monkeys): 1.4 fold
- Fold change relative to OVX: Pituitary tumour-transforming 1 interacting protein (uterus, OVX monkeys): 1.9 fold
- Fold change relative to OVX: Procollagen C-endopeptidase enhancer (uterus, OVX monkeys): 2.3 fold
- Fold change relative to OVX: Procollagen-proline, 2-oxoglutarate 4-dioxygenase (proline 4-hydroxylase), alpha polypeptide II (uterus, OVX monkeys): 1.6 fold
- Fold change relative to OVX: Progesterone receptor (uterus, OVX monkeys): 4.5 fold
- Fold change relative to OVX: Protein tyrosine kinase 9 (uterus, OVX monkeys): 1.7 fold
- Fold change relative to OVX: SET domain, bifurcated 1 (uterus, OVX monkeys): 1.9 fold
- Fold change relative to OVX: SPARC-like 1 (mast9, hevin) (uterus, OVX monkeys): 1.3 fold
- Fold change relative to OVX: Secreted frizzled-related protein 1 (uterus, OVX monkeys): 2.2 fold
- Fold change relative to OVX: Secreted frizzled-related protein 4 (uterus, OVX monkeys): 2.9 fold
- Fold change relative to OVX: Secreted protein, acidic, cysteine-rich (osteonectin) (uterus, OVX monkeys): 2.2 fold
- Fold change relative to OVX: Serine (or cysteine) proteinase inhibitor, clade H (heat shock protein 47), member 1, (collagen binding protein 1) (uterus, OVX monkeys): 2.2 fold
- Fold change relative to OVX: Solute carrier family 22 (organic cation transporter), member 1-like (uterus, OVX monkeys): 1.8 fold
- Fold change relative to OVX: Solute carrier family 25 (mitochondrial carrier; adenine nucleotide translocator), member 5 (uterus, OVX monkeys): 2.2 fold
- Fold change relative to OVX: Stem cell growth factor; lymphocyte secreted C-type lectin (uterus, OVX monkeys): 1.4 fold
- Fold change relative to OVX: Tenascin C (hexabrachion) (uterus, OVX monkeys): 3.8 fold
- Fold change relative to OVX: Testis Enhanced Gene Transcript (Bax Inhibitor 1) (uterus, OVX monkeys): 1.5 fold
- Fold change relative to OVX: Thioredoxin interacting protein (uterus, OVX monkeys): 0.6 fold
- Fold change relative to OVX: Transforming growth factor, beta-induced, 68 kda (uterus, OVX monkeys): 2.2 fold
- Fold change relative to OVX: Ubiquinol-cytochrome c reductase, Rieske iron-sulfur polypeptide 1 (uterus, OVX monkeys): 1.4 fold
- Fold change relative to OVX: Wingless-type MMTV integration site family, member 2B (uterus, OVX monkeys): 1.9 fold
- Fold change relative to OVX: Wingless-type MMTV integration site family, member 16 (uterus, OVX monkeys): 1.1 fold
- Fold change relative to SHAM control: ATPase, H+ transporting, lysosomal 38 kda, V0 subunit d isoform 1 (uterus, OVX monkeys): 1.0 fold
- Fold change relative to SHAM control: ATPase, Na+/K+ transporting, beta 3 polypeptide (uterus, OVX monkeys): 1.2 fold
- Fold change relative to SHAM control: Biglycan (uterus, OVX monkeys): 0.7 fold
- Fold change relative to SHAM control: CDC28 protein kinase regulatory subunit 2 (uterus, OVX monkeys): 1.9 fold
- Fold change relative to SHAM control: Cadherin 11, type 2, OB-cadherin (osteoblast) (uterus, OVX monkeys): 1.9 fold
- Fold change relative to SHAM control: Calcium channel, voltage-dependent, beta 2 subunit (uterus, OVX monkeys): 0.9 fold
- Fold change relative to SHAM control: Catenin (cadherin-associated protein), alpha-like 1 (uterus, OVX monkeys): 1.5 fold
- Fold change relative to SHAM control: Chitinase 3-like 1 (cartilage glycoprotein-39) (uterus, OVX monkeys): 1.2 fold
- Fold change relative to SHAM control: Chloride intracellular channel 4 (uterus, OVX monkeys): 1.1 fold
- Fold change relative to SHAM control: Chondroitin sulfate proteoglycan 2 (versican) (uterus, OVX monkeys): 2.1 fold
- Fold change relative to SHAM control: Collagen, type I, alpha 1 (uterus, OVX monkeys): 1.3 fold
- Fold change relative to SHAM control: Collagen, type IV, alpha 2 (uterus, OVX monkeys): 1.3 fold
- Fold change relative to SHAM control: Collagen, type V, alpha 1 (uterus, OVX monkeys): 0.6 fold
- Fold change relative to SHAM control: Collagen, type VI, alpha 3 (uterus, OVX monkeys): 1.1 fold
- Fold change relative to SHAM control: Collagen, type VIII, alpha 2 (uterus, OVX monkeys): 1.1 fold
- Fold change relative to SHAM control: Cyclin D1 (PRAD1: parathyroid adenomatosis 1) (uterus, OVX monkeys): 2.0 fold
- Fold change relative to SHAM control: Cysteine-rich, angiogenic inducer, 61 (uterus, OVX monkeys): 0.9 fold
- Fold change relative to SHAM control: Cytochrome c oxidase subunit via polypeptide 1 (uterus, OVX monkeys): 1.2 fold
- Fold change relative to SHAM control: Cytochrome c oxidase subunit viia polypeptide 2 (liver) (uterus, OVX monkeys): 1.7 fold
- Fold change relative to SHAM control: Dermatopontin (uterus, OVX monkeys): 1.0 fold
- Fold change relative to SHAM control: Dishevelled associated activator of morphogenesis 1 (uterus, OVX monkeys): 0.8 fold
- Fold change relative to SHAM control: Fibroblast growth factor 2 (basic) (uterus, OVX monkeys): 1.0 fold
- Fold change relative to SHAM control: Fibulin 1 (uterus, OVX monkeys): 1.1 fold
- Fold change relative to SHAM control: Four and a half LIM domains 2 (uterus, OVX monkeys): 1.1 fold
- Fold change relative to SHAM control: G1 to S phase transition 1 (uterus, OVX monkeys): 1.3 fold

Source: patent US20130040882A1, “USE OF FIBROBLAST GROWTH FACTOR FRAGMENTS” (NOVARTIS AG, priority 2003, published 2013)
